The values below come from US9815788B2, “Anti-angiogenic compounds” (University College Dublin National University of Ireland, …, priority 2012, dated 2017).

The subject of assay [1] is zebrafish hyaloid vasculature. In words: Quantification of primary hyaloid vasculature branch number in Tg(fli1:EGFP) zebrafish. In kind it is in vivo. The settings on record: for dose-dependent inhibition of development of hyaloid vessels: decreasing doses 20, 10, 7.5, 5, 2.5, 1 and/or 0.5 μM; for inhibition of developmental angiogenesis of the hyaloid vasculature (number of primary hyaloid vessels): typically 10 μM or 5 μM, from 24 hpf, vs DMSO control. On the procedure:
(§1) All experiments were carried out under ethical approval granted by the UCD animal research ethics committee. Tg(fli1:EGFP) zebrafish were maintained according to standard procedures on a 14 hr light/10 hr dark cycle at 28° C. Embryos were obtained by natural spawning and developmental stages established by time and morphological criteria. […] Larvae were euthanised, and fixed in 4% PFA at 4° C. overnight before analysis.
Overall patterning of the vasculature (fin, gut and intersegmental vessels) was examined for abnormalities. Right lenses were dissected from the larvae and transferred to depression slides for observation under epi-fluorescence in the Olympus SZX16. Patterning of the hyaloid vessels on the treated larval lenses was compared to DMSO controls and the archetypal pattern previously described (Alvarez et al., 2007; Alvarez et al., 2009).
as §1, with “analysis. Lenses were dissected from the larvae and transferred to depression slides for observation under epi-fluorescence in the Olympus SZX16. Patterning of the hyaloid vessels on the treated larval lenses was compared to DMSO controls and the archetypal pattern previously described (Alvarez et al., 2007; Alvarez et al., 2009).” for “analysis.”

The subject of assay [2] is OE33R radio-resistant oesophageal adenocarcinoma cells. The experiment in a line: Cell number after 24 hours drug treatment (crystal violet absorbance), OE33R. In kind it is cell-based, human. The following applies: 10 μM. The method, then:
(§2) OE33P radio-sensitive and OE33R radio-resistant oesophageal adenocarcinoma cells were used to test the effects of the compounds 11B HCl, […], 11B CC16 HCl, 11B 471 and 11B 268 on cell number. Cells were maintained in RPMI media supplemented with 10% foetal calf serum, penicillin (100 U/ml) and streptomycin (100 gig/ml). A total of 11.000 or 13,000 cells, in 100 μl media, were seeded per well in 24 well plates and left to incubate for 24 hours, with an additional 150 μl media added after 5 hours. The media was replaced with solutions containing 10 μM of 11B HCl, 11B CC11 HCl, 11B CC16 HCl, 11B 471, 11B 268 or fresh media as a control. Each drug had 6 replicates. After 24 hours of treatment, the cells were fixed with 1% glutaraldehyde for 15 minutes and then stained with crystal violet for 30 minutes. The plates were blotted and dried overnight. The cells were resuspended with 1% TritonX-100 and shaken for 15 minutes. The absorbance was read on a spectrophotometer at 590 nm.
(§3) OE33P radiosensitive and OE33R radioresistant cells were used to test the effects of the compound 11B_Z_HCl on toxicity. Cells were maintained in RPMI media supplemented with 10% foetal calf serum, penicillin (100 U/ml) and streptomycin (100 μg/ml). A total of 11,000 cells, in 100 μl media, were seeded per well in 24 well plates and left to incubate for 24 hours, with an additional 150 μl media added after 5 hours. The media was replaced with solutions containing 10 μM of 11B_Z_HCl or fresh media as a control. Each treatment had 6 replicates. After 24 hours of treatment, the cells were fixed with 1% glutaraldehyde for 15 minutes and then stained with crystal violet for 30 minutes. The plates were blotted and dried overnight. The cells were resuspended with 1% TritonX-100 and shaken for 15 minutes. The absorbance was read on a spectrophotometer at 590 nm.

In assay [3] the test system is OE33P radio-sensitive oesophageal adenocarcinoma cells. The experiment in a line: Cell number after 24 hours drug treatment (crystal violet absorbance), OE33P. In kind it is cell-based, human. The following applies: 10 μM. On the procedure:
as §2, §3

Assay [4] concerns OE33P radiosensitive oesophageal adenocarcinoma cells. The experiment in a line: Quantification of oxidative phosphorylation (OCR, Seahorse), OE33P. In kind it is cell-based, human. The following applies: 10 μM, 24 hours. The method, then: OE33P radiosensitive and OE33R radio-resistant oesophageal adenocarcinoma cells were used to test the effects of the compounds 11B HCl, 11B CC11 HCl, 11B CC16 HCl, 11B 471 and 11B 268 on oxidative phosphorylation. Cells were maintained in RPMI media supplemented with 10% foetal calf serum, penicillin (100 U/ml) and streptomycin (100 μg/ml). A total of 11,000-13,000 cells, in 100 μl media, were seeded per well in 24 well plates and left to incubate for 24 hours, with an additional 150 μl media added after 5 hours. The media was replaced with solutions containing 10 μM of 11B HCl, 11B CC11 HCl, 11B CC16 HCl, 11B 471, 11B 268 or fresh media as a control. Each drug had 6 replicates. After 24 hours of treatment, media was replaced with modified DMEM supplemented with 0.5 mM glucose. Rates of oxidative phosphorylation were determined using Seahorse Biosciences metabolism technology. The media was disposed and the cells washed with PBS. The cells were fixed with 1% glutaraldehyde for 15 minutes and then stained with crystal violet for 30 minutes. The plates were blotted and dried overnight. The cells were resuspended with 1% TritonX-100 and shaken for 15 minutes. The absorbance was read on a spectrophotometer at 595 nm. Rates of oxidative phosphorylation were then normalised to cell number.
OE33P radiosensitive and OE33R radioresistant oesophageal adenocarcinoma cells were used to test the effects of the compound 11B_Z_HCl on oxidative phosphorylation. Cells were maintained in RPMI media supplemented with 10%0/foetal calf serum, penicillin […]) and streptomycin (100 μg/ml). A total of 11,000 cells, in 100 μl media, were seeded per well in 24 well plates and left to incubate for 24 hours, with an additional 150 μl media added after 5 hours. The media was replaced with solutions containing 10 μM of 11B_Z_HCl or fresh media as a control. Each treatment had 6 replicates. After 24 hours of treatment, media was replaced with modified DMEM supplemented with 0.5 mM glucose. Rates of oxidative phosphorylation were determined using Seahorse Biosciences metabolism technology. Rates of oxidative phosphorylation were then normalised to cell number.

For assay [5], the system named is OE33R radio-resistant oesophageal adenocarcinoma cells. The experiment in a line: Quantification of glycolysis (ECAR, Seahorse), OE33R. In kind it is cell-based, human. The following applies: 10 μM, 24 hours. On the procedure: OE33P radio-sensitive and OE33R radio-resistant oesophageal adenocarcinoma cells were used to test the effects of compounds 11B HCl, 11B CC11 HCl, 11B CC16 HCl, 11B 471 and 11B 268 on glycolysis. Cells were maintained in RPMI media supplemented with 10% foetal calf serum, penicillin (100 U/ml) and streptomycin (100 μg/ml). A total of 11,000 or 13,000 cells, in 100 μl media, were seeded per well in 24 well plates and left to incubate for 24 hours, with an additional 150 μl media added after 5 hours. The media was replaced with solutions containing 10 μM of 11B HCl, […], 11B CC16 HCl, 11B 471, 11B 268 or fresh media as a control. Each drug had 6 replicates. After 24 hours of treatment, media was replaced with modified DMEM supplemented with 0.5 mM glucose. Rates of glycolysis were determined using Seahorse Biosciences metabolism technology. The media was disposed and the cells washed with PBS. The cells were fixed with 1% glutaraldehyde for 15 minutes and then stained with crystal violet for 30 minutes. The plates were blotted and dried overnight. The cells were resuspended with 1% TritonX-100 and shaken for 15 minutes. The absorbance was read on a spectrophotometer at 590 nm. Rates of glycolysis were then normalised to cell number.
OE33P radiosensitive oesophageal adenocarcinoma cells were used to test the effects of the compound 11B_ZHCl on glycolysis. Cells were maintained in RPMI media supplemented with 10% foetal calf serum, penicillin (100 U/ml) and streptomycin (100 μg/ml). A total of 11,000 cells, in 100 μl media, were seeded per well in 24 well plates and left to incubate for 24 hours, with an additional 150 μl media added after 5 hours. The media was replaced with solutions containing 10 μM of 11B_ZHCl or fresh media as a control. Each treatment had 6 replicates. After 24 hours of treatment, media was replaced with modified DMEM supplemented with 0.5 mM glucose. Rates of glycolysis were determined using Seahorse Biosciences metabolism technology. […] The absorbance was read on a spectrophotometer at 590 nm. […] No changes in ECAR were detected in OE33R treated cells.

Assay [6] concerns zebrafish intersegmental vessels. The experiment in a line: Quantification of intersegmental vessel number in zebrafish. In kind it is in vivo. The following applies: 10 μM, from 6 hpf. On the procedure:
[…] Larvae were manually dechorionated, euthanised, and fixed in 4% PFA at 4° C. overnight before analysis. The larvae were then washed with PBS and transferred to depression slides for observation under epi-fluorescence in an Olympus SZX16 fluorescent microscope. The number of intersegmental vessels was counted and the average number was graphed for each drug.
Larvae were manually dechorionated, euthanised, and fixed in 4% PFA at 4° C. overnight before analysis. The larvae were then washed with PBS and transferred to depression slides for observation under epi-fluorescence in an Olympus SZX16 fluorescent microscope. The number of intersegmental vessels was counted and the average number was graphed for each drug.

The structures appear in SMILES notation. Entries after “also recorded” stand apart in the source; their conditions may differ.

On to `COc1ccccc1C=Cc1ccc2ccccc2n1` [Compound 11B-268, 2-(2-(2-Methoxyphenyl)vinyl)quinoline], for which the “dose-dependent inhibition of development of hyaloid vessels” value in assay [1] was “dose-dependent effect; also recorded: inhibit developmental angiogenesis of zebrafish hyaloid vasculature in a dose-dependent statistically significant manner”. Also, in assay [1], the “inhibition of developmental angiogenesis of the hyaloid vasculature (number of primary hyaloid vessels)” value is on record as “inhibit developmental angiogenesis of the zebrafish hyaloid vasculature in a statistically significant manner”. Besides, the “cell number, measured by % absorbance” value in assay [2] and in assay [3] was “did not significantly reduce cell number” in each case. In addition, in assay [4], the “oxygen consumption rate (OCR), a measure of oxidative phosphorylation” value is “significantly reduce”.

For `C(=Cc1ccc2ccccc2n1)c1cccnc1` [Compound 11B-471, 2-[2-(3-pyridinyl)vinyl]quinoline], in assay [5], the “extracellular acidification rate (ECAR), a measure of glycolysis” value is on record as “significantly reduce”. In assay [1], the “dose-dependent inhibition of development of hyaloid vessels” value is on record as “inhibit developmental angiogenesis of zebrafish hyaloid vasculature in a dose-dependent statistically significant manner” and the “inhibition of developmental angiogenesis of the hyaloid vasculature (number of primary hyaloid vessels)” value is “inhibit developmental angiogenesis of the zebrafish hyaloid vasculature in a statistically significant manner”. In assay [2], the “cell number, measured by % absorbance” value is “did not significantly reduce cell number”. Also, the “cell number, measured by % absorbance” value in assay [3] is listed as “did not significantly reduce cell number”. Moreover, the “inhibition of developmental angiogenesis of intersegmental vessels (number of intersegmental vessels)” value in assay [6] is “inhibit developmental angiogenesis of zebrafish intersegmental vessels in a statistically significant manner”.
